Patent US11497212B2, “Substituted thiophenyl uracils, salts thereof and the use thereof as herbicidal agents” (Syngenta Crop Protection AG, priority 2017, dated 2022)

Experiments:
Assay type in all cases: in vivo
[1] = system: Abutilon theophrasti; assay: Herbicidal action post-emergence (greenhouse pot trial); conditions: application rate 20 g/ha, scored visually after about 3 weeks vs untreated controls
Method: (§1) Seeds of mono- and dicotyledonous weed plants and crop plants are laid out in sandy loam soil in plastic or wood-fiber pots, covered with earth and grown under controlled growth conditions in a greenhouse. 2 to 3 weeks after sowing, the trial plants are treated at the one-leaf stage. The compounds of the invention formulated in the form of wettable powders (WP) or emulsion concentrates (EC) were then sprayed onto the green parts of the plant as an aqueous suspension or emulsion with addition of 0.5% additive at a water application rate equivalent to 600 L/ha. After the trial plants had stood for about 3 weeks in the greenhouse, under optimal growth conditions, the effect of the preparations was scored visually by comparison with untreated controls. For example, 100% efficacy=plants have died, 0% efficacy=like control plants. Tables A1 to A15 below show the efficacies of selected compounds of the general formula (I) according to tables I.1 to I.60 on various harmful plants and an application rate corresponding to 80 g/ha or lower that were obtained by the aforementioned trial method.

[2] = system: Amaranthus retroflexus; assay: as above; conditions: application rate 20 g/ha, scored visually after about 3 weeks vs untreated controls
Method: as §1

[3] = system: Polygonum convolvulus; assay: as above; conditions: application rate 20 g/ha, scored visually after about 3 weeks vs untreated controls
Method: as §1

[4] = system: Setaria viridis; assay: as above; conditions: application rate 20 g/ha, scored visually after about 3 weeks vs untreated controls
Method: as §1

[5] = system: Stellaria media; assay: as above; conditions: application rate 20 g/ha, scored visually after about 3 weeks vs untreated controls
Method: as §1

[6] = system: Veronica persica; assay: as above; conditions: application rate 20 g/ha
Method: as §1

[7] = system: Viola tricolor; assay: as above; conditions: application rate 20 g/ha
Method: as §1

[8] = system: Oryza sativa; assay: Crop compatibility post-emergence (greenhouse pot trial); conditions: application rate 20 g/ha
Method: as §1, with “plants.” for “plants. Tables A1 to A15 below show the efficacies of selected compounds of the general formula (I) according to tables I.1 to I.60 on various harmful plants and an application rate corresponding to 80 g/ha or lower that were obtained by the aforementioned trial method.”
(§2) Crop plant compatibilities were also scored correspondingly.
(§3) The effects observed are reported here on selected crop plants by comparison with the untreated controls (values in %).

[9] = system: Triticum aestivum; assay: as above
Method: as §1, with “plants.” for “plants. Tables A1 to A15 below show the efficacies of selected compounds of the general formula (I) according to tables I.1 to I.60 on various harmful plants and an application rate corresponding to 80 g/ha or lower that were obtained by the aforementioned trial method.”
as §2, §3

[10] = system: Zea mays; assay: as above
Method: as §1, with “plants.” for “plants. Tables A1 to A15 below show the efficacies of selected compounds of the general formula (I) according to tables I.1 to I.60 on various harmful plants and an application rate corresponding to 80 g/ha or lower that were obtained by the aforementioned trial method.”
as §2, §3

[11] = system: Matricaria inodora; assay: Herbicidal action post-emergence (greenhouse pot trial); conditions: application rate 20 g/ha, scored visually after about 3 weeks vs untreated controls
Method: as §1

[12] = system: Pharbitis purpurea; assay: as above; conditions: application rate 20 g/ha
Method: as §1

[13] = system: Echinochloa crus-galli; assay: as above; conditions: application rate 20 g/ha, scored visually after about 3 weeks vs untreated controls
Method: as §1

[14] = system: Digitaria sanguinalis; assay: as above; conditions: application rate 20 g/ha
Method: as §1

| SMILES | Abutilon theophrasti (Efficacy in %) [1] [%] | Amaranthus retroflexus (Efficacy in %) [2] [%] | Polygonum convolvulus (Efficacy in %) [3] [%] | Setaria viridis (Efficacy in %) [4] [%] | Stellaria media (Efficacy in %) [5] [%] | Veronica persica (Efficacy in %) [6] [%] | Viola tricolor (Efficacy in %) [7] [%] | Oryza sativa (Efficacy in %) [8] [%] | Triticum aestivum (Efficacy in %) ([9]; application rate 20 g/ha) [%] | Zea mays (Efficacy in %) ([10]; application rate 5 g/ha) [%] | Matricaria inodora (Efficacy in %) [11] [%] | Pharbitis purpurea (Efficacy in %) [12] [%] | Zea mays (Efficacy in %) ([10]; application rate 20 g/ha) [%] | Triticum aestivum (Efficacy in %) ([9]; application rate 5 g/ha) [%] | Zea mays (Efficacy in %) ([10]; application rate 80 g/ha) [%] | Echinochloa crus-galli (Efficacy in %) [13] [%] | Digitaria sanguinalis (Efficacy in %) [14] [%] |
| --- | --- | --- | --- | --- | --- | --- | --- | --- | --- | --- | --- | --- | --- | --- | --- | --- | --- |
| Cn1c(C(F)(F)F)cc(=O)n(-c2cc(SCC(C)(C)C(=O)OCC3CCCOC3)c(Cl)cc2F)c1=O (centres unmarked) [I.48-92, Tetrahydro-2H-pyran-3-ylmethyl 3-({2-chloro-4-fluoro-5-[3-methyl-2,6-dioxo-4-(trifluoromethyl)-3,6-dihydropyrimidin-1(2H)-yl]phenyl}sulfanyl)-2,2-dimethylpropanoate] | 100 | 100 | 80 | 100 | 100 | 100 | 100 | 10 | 0 | 10 |  |  |  |  |  |  |  |
| Cc1c(C(F)(F)F)n(C)c(=O)n(-c2cc(SCC(C)(C)C(=O)NCC3CCCO3)c(Cl)cc2F)c1=O (centres unmarked) [I.54-221] | 100 | 100 | 100 |  | 80 | 80 |  | 20 | 0 |  | 100 | 100 | 00 |  |  |  |  |
| Cc1c(C(F)(F)F)n(C)c(=O)n(-c2cc(SCC(C)(C)C(=O)OCC3CCSC3)c(Cl)cc2F)c1=O (centres unmarked) [I.54-82] | 100 | 100 |  |  |  | 80 | 90 | 0 |  | 20 |  |  |  | 0 |  |  |  |
| Cn1c(C(F)(F)F)cc(=O)n(-c2cc(SCC(C)(C)C(=O)NCC3CCCO3)c(Cl)cc2F)c1=O (centres unmarked) [I.48-221] | 100 | 90 |  |  | 100 | 100 | 100 | 10 |  |  | 80 |  |  |  | 20 |  |  |
| CCC(Sc1cc(-n2c(=O)c(C)c(C(F)(F)F)n(C)c2=O)c(F)cc1Cl)C(=O)OCC1CCCO1 (centres unmarked) [I.12-71] | 100 | 100 | 80 |  | 100 | 100 | 100 | 0 |  | 0 | 80 | 100 |  | 0 |  | 100 |  |
| COCCNC(=O)C(C)Sc1cc(-n2c(=O)cc(C(F)(F)F)n(C)c2=O)c(F)cc1Cl (centres unmarked) [I.1-151] | 100 | 100 | 100 | 100 | 100 | 100 | 100 | 20 |  | 20 | 100 | 100 |  | 20 |  |  | 80 |
| CC(Sc1cc(-n2c(=O)cc(C(F)(F)F)n(C)c2=O)c(F)cc1Cl)C(=O)NCC1COC(C)(C)O1 (centres unmarked) [I.1-334] | 100 | 100 | 90 | 90 | 90 | 100 | 100 | 10 |  |  | 100 |  | 20 |  |  |  |  |
| CCC(Sc1cc(-n2c(=O)c(C)c(C(F)(F)F)n(C)c2=O)c(F)cc1Cl)C(=O)NCC1CCCO1 (centres unmarked) [I.12-221] | 100 | 100 | 100 |  | 80 | 100 | 100 | 20 | 20 | 0 | 100 |  |  |  |  |  |  |
| CC(Sc1cc(-n2c(=O)cc(C(F)(F)F)n(C)c2=O)c(F)cc1Cl)C(=O)OCCCOCc1ccccc1 (centres unmarked) [I.1-30] | 100 | 100 | 100 | 100 | 90 | 100 | 100 | 0 | 20 |  | 100 | 100 |  |  |  | 100 | 100 |
| Cn1c(C(F)(F)F)cc(=O)n(-c2cc(SCC(C)(C)C(=O)OC3CCOCC3)c(Cl)cc2F)c1=O [I.48-127] | 100 | 100 | 90 |  | 100 | 100 | 100 | 0 | 10 | 20 | 90 | 90 |  |  |  |  |  |
